One experiment deals with Human mTOR (FLAG-TOR) (Homo sapiens, UniProt P42345). Put plainly: mTOR kinase assay (DELFIA format, purified enzyme). The class given is biochemical. The conditions noted are these: read-out: IC50 mTOR.
Experiment [1] relates to human breast MDA-MB-361 tumor cell line. The experiment is described as follows: In vitro cell culture growth assay (MTS), MDA-MB-361. The class given is cell-based. To be noted: Homo sapiens, MDA-MB-361 cells, MTS, three days after drug treatment, read-out: IC50 MDA-MB-361.
For experiment [2], the system named is human prostate PC3-mm2 tumor cell line. The experiment is described as follows: In vitro cell culture growth assay (MTS), PC3-mm2. The conditions noted are these: Homo sapiens, PC3MM2, 72 h, PC3-mm2 cells, MTS, three days after drug treatment; read-out: IC50 PC3-mm2. The class given is cell-based.
In the next experiment the target is PI3K-α (Homo sapiens, UniProt P42336). Put plainly: PI3K-alpha fluorescence polarization assay. To be noted: read-out: IC50 PI3Kα.
PI3K-α, sequence (P42336 whole entry, species assumed): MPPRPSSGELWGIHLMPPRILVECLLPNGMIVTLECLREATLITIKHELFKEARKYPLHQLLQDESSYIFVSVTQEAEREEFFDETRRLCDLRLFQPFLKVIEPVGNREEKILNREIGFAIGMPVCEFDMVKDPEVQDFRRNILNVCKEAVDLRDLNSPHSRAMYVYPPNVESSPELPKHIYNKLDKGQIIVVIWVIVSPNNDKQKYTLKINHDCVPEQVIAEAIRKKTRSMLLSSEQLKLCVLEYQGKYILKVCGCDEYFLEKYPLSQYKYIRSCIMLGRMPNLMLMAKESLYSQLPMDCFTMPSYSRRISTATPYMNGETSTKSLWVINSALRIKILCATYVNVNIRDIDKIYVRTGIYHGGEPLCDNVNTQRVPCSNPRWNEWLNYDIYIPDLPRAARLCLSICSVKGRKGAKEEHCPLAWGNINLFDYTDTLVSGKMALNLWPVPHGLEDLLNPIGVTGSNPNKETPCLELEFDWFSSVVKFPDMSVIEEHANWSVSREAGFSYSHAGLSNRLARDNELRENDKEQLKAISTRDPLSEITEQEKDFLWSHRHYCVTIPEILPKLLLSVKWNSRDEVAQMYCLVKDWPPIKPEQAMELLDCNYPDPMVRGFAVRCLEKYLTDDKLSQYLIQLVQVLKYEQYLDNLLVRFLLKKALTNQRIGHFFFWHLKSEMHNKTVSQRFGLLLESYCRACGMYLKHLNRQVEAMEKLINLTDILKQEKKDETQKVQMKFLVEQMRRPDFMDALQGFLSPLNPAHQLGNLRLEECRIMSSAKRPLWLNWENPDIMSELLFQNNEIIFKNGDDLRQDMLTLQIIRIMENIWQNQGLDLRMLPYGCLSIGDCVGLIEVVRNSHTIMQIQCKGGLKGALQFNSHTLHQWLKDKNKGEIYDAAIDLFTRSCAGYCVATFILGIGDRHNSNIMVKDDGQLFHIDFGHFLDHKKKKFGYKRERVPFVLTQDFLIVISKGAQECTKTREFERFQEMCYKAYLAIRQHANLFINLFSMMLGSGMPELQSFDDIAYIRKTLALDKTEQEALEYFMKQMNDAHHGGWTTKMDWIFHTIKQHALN
PI3K-α, sequence (P27986 whole entry partner, species assumed): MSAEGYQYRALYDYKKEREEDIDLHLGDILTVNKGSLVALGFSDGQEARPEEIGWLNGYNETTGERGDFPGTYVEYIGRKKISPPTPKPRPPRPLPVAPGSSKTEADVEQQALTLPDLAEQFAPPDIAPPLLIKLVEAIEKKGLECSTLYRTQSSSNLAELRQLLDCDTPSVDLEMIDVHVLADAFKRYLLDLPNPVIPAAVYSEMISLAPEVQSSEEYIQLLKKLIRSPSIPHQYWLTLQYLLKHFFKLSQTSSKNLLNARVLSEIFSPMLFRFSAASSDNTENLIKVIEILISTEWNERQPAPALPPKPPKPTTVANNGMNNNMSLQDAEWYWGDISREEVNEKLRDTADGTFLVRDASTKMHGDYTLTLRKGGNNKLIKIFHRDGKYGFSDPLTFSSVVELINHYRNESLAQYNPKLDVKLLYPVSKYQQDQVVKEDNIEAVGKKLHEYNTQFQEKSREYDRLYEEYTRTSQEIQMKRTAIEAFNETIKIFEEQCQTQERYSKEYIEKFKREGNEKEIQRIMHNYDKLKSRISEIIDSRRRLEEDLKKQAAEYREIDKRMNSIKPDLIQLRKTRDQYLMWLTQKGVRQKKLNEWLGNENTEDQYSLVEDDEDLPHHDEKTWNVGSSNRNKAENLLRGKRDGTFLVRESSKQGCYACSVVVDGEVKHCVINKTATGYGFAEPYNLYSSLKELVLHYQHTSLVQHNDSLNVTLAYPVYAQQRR
Another experiment addresses PI3K-γ (Homo sapiens, UniProt P48736). The experiment is described as follows: PI3K-gamma fluorescence polarization assay. To be noted: read-out: IC50 PI3Kγ. A general note: Polarisation of emitted light reports the rotation of a fluorescent probe.

Where two headings read alike, the source gives them in different places.

The term IC50 denotes the point on the concentration scale where inhibition reaches its midpoint.

Human mTOR (FLAG-TOR), sequence (P42345 1360-2549 limits assumed): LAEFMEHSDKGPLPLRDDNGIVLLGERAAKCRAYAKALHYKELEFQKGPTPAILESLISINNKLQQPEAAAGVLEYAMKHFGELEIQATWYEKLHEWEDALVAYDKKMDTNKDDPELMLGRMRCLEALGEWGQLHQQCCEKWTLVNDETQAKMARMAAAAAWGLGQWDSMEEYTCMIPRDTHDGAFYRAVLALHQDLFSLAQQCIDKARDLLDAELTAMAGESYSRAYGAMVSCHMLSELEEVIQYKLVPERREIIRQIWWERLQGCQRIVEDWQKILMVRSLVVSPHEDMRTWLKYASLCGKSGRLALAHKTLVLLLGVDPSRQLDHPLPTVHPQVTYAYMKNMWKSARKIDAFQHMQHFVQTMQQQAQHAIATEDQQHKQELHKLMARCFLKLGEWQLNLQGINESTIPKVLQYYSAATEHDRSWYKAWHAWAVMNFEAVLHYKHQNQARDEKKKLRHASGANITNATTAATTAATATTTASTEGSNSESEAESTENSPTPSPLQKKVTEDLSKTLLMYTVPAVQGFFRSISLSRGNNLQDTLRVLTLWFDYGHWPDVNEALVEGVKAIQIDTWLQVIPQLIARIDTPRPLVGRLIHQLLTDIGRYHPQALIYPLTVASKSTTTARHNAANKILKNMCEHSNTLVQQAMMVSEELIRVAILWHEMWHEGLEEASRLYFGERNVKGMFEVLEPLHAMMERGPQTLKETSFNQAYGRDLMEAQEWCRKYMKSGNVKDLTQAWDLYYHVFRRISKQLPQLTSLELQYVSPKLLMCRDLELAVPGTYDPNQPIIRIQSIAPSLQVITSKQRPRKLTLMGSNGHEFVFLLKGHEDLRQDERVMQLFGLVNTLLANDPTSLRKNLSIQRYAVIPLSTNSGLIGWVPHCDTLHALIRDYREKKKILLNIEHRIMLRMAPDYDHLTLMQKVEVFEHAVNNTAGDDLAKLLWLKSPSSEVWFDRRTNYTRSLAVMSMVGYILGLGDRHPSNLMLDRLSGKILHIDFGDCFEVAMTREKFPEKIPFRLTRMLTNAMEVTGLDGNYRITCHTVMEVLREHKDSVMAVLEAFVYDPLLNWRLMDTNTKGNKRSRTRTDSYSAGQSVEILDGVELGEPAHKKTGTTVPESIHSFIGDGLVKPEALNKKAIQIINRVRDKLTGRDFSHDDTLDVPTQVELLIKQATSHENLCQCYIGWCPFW
PI3K-γ, sequence (P48736 whole entry, species assumed): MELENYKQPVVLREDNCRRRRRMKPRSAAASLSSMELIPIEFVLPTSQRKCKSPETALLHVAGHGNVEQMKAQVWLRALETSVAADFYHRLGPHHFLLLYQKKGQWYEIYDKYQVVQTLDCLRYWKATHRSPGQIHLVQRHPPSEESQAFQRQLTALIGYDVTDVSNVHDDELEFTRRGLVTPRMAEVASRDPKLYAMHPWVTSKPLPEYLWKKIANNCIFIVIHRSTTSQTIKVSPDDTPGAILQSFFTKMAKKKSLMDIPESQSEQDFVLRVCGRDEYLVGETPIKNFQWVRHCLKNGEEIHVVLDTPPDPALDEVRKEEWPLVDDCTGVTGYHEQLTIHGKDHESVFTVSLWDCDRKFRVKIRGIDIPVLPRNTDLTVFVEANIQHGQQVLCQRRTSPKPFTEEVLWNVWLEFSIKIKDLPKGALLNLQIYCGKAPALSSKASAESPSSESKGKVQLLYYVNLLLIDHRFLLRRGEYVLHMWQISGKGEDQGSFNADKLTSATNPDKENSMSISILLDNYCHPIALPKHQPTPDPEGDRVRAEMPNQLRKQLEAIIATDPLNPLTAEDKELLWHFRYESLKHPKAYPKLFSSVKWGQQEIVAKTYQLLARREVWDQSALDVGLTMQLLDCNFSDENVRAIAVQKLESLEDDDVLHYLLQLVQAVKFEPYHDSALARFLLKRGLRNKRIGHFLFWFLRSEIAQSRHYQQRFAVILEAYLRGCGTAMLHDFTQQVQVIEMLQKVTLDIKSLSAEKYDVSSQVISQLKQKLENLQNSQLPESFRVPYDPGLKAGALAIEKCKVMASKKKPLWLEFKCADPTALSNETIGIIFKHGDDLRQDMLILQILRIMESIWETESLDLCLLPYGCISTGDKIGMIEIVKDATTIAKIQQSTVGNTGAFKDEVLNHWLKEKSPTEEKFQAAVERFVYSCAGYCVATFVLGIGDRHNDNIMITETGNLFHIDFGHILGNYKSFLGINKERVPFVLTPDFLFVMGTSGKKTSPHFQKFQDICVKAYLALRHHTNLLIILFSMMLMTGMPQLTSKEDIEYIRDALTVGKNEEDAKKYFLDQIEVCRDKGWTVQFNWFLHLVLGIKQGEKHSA

In the case of `O=C(Nc1ccc(C(=O)NCCN2CCCCC2)cc1)Nc1ccc(-c2nc(N3CCOCC3)nc(N3C4CCCC3COC4)n2)cc1` [Example 799, 4-[({4-[4-morpholin-4-yl-6-(3-oxa-9-azabicyclo[3.3.1]non-9-yl)-1,3,5-triazin-2-yl]phenyl}carbamoyl)amino]-N-(2-piperidin-1-ylethyl)benzamide], the IC50 was 0.5 nM on Human mTOR (FLAG-TOR); less than 3.2 nM in experiment [1] (72 h); 24 nM in experiment [2]; 5 nM at PI3K-α; 71.5 nM on PI3K-γ.
Regarding `O=C(Nc1ccc(C(=O)N2CCC(N3CCCC3)CC2)cc1)Nc1ccc(-c2nc(N3CCOCC3)nc(N3C4CCCC3COC4)n2)cc1` [Example 800, 1-{4-[4-morpholin-4-yl-6-(3-oxa-9-azabicyclo[3.3.1]non-9-yl)-1,3,5-triazin-2-yl]phenyl}-3-{4-[(4-pyrrolidin-1-ylpiperidin-1-yl)carbonyl]phenyl}urea], the IC50 on Human mTOR (FLAG-TOR) is 0.72 nM; in experiment [1] (MDA-MB-361, 72 h) it was 1 nM; in experiment [2], 11 nM; at PI3K-α, 5.5 nM; on PI3K-γ, 35.5 nM.
Regarding `CN1CCCC1CCNC(=O)c1ccc(NC(=O)Nc2ccc(-c3nc(N4CCOCC4)nc(N4C5CCCC4COC5)n3)cc2)cc1` (centres unmarked) [Example 801, N-[2-(1-methylpyrrolidin-2-yl)ethyl]-4-[({4-[4-morpholin-4-yl-6-(3-oxa-9-azabicyclo[3.3.1]non-9-yl)-1,3,5-triazin-2-yl]phenyl}carbamoyl)amino]benzamide], the half-inhibitory concentration (IC50) is 0.455 nM on Human mTOR (FLAG-TOR); 3 nM in experiment [1] (72 h); 32 nM in experiment [2]; 5 nM at PI3K-α; 38 nM on PI3K-γ.
Take `CNCCN(C)C(=O)c1ccc(NC(=O)Nc2ccc(-c3nc(N4CCOCC4)nc(N4C5CCCC4COC5)n3)cc2)cc1` [Example 802, N-methyl-N-[2-(methylamino)ethyl]-4-[({4-[4-morpholin-4-yl-6-(3-oxa-9-azabicyclo[3.3.1]non-9-yl)-1,3,5-triazin-2-yl]phenyl}carbamoyl)amino]benzamide]: the half-maximal inhibitory concentration (IC50) on Human mTOR (FLAG-TOR) is 0.675 nM; in experiment [1] (72 h), 3 nM; in experiment [2], 50 nM; on PI3K-α, 3.5 nM; on PI3K-γ, 23 nM.
Turning to `CCN1CCN(C(=O)c2ccc(NC(=O)Nc3ccc(-c4nc(N5CCOCC5)nc(N5C6CCC5COC6)n4)cc3)cc2)CC1` [Example 803, 1-{4-[(4-ethylpiperazin-1-yl)carbonyl]phenyl}-3-{4-[4-morpholin-4-yl-6-(3-oxa-8-azabicyclo[3.2.1]oct-8-yl)-1,3,5-triazin-2-yl]phenyl}urea], the 50% inhibitory concentration (IC50) at Human mTOR (FLAG-TOR) was determined as 0.19 nM; in experiment [1] (MDA-MB-361, 72 h), 1 nM; in experiment [2], 6 nM; on PI3K-α, 3 nM; on PI3K-γ, 29 nM.
`CCN1CCN(C(=O)c2ccc(NC(=O)Nc3ccc(-c4nc(N5CCOCC5)nc(N5C6CCCC5COC6)n4)cc3)cc2)CC1` [Example 804, 1-{4-[(4-ethylpiperazin-1-yl)carbonyl]phenyl}-3-{4-[4-morpholin-4-yl-6-(3-oxa-9-azabicyclo[3.3.1]non-9-yl)-1,3,5-triazin-2-yl]phenyl}urea]: the IC50 on Human mTOR (FLAG-TOR) was found to be 0.425 nM; in experiment [1] (MDA-MB-361, 72 h), 3 nM; in experiment [2] it was 11 nM; at PI3K-α, 6 nM; at PI3K-γ, 59.5 nM.
For the compound `CCN1CCN(C(=O)c2ccc(NC(=O)Nc3ccc(-c4nc(N5CCOCC5)nc(N5C6COCC5COC6)n4)cc3)cc2)CC1` [Example 806, 1-{4-[4-(3,7-dioxa-9-azabicyclo[3.3.1]non-9-yl)-6-morpholin-4-yl-1,3,5-triazin-2-yl]phenyl}-3-{4-[(4-ethylpiperazin-1-yl)carbonyl]phenyl}urea], the IC50 was 0.24 nM on Human mTOR (FLAG-TOR); less than 3.2 nM in experiment [1] (MDA-MB-361, 72 h); 9 nM in experiment [2]; 4.5 nM at PI3K-α; 47 nM on PI3K-γ.
For `CN(C)C1CCN(C(=O)c2ccc(NC(=O)Nc3ccc(-c4nc(N5CCOCC5)nc(N5CC6CCC5CO6)n4)cc3)cc2)CC1` (centres unmarked) [Example 810, 1-(4-{[4-(dimethylamino)piperidin-1-yl]carbonyl}phenyl)-3-{4-[4-morpholin-4-yl-6-(2-oxa-5-azabicyclo[2.2.2]oct-5-yl)-1,3,5-triazin-2-yl]phenyl}urea], in that order: 2.05 nM, 2 nM, 26 nM, 2.8 nM and 30.5 nM.
For the compound `CC(C)N1CCN(C(=O)c2ccc(NC(=O)Nc3ccc(-c4nc(N5CCOCC5)nc(N5CC6CCC5CO6)n4)cc3)cc2)CC1` (centres unmarked) [Example 811, 1-(4-{[4-(1-methylethyl)piperazin-1-yl]carbonyl}phenyl)-3-{4-[4-morpholin-4-yl-6-(2-oxa-5-azabicyclo[2.2.2]oct-5-yl)-1,3,5-triazin-2-yl]phenyl}urea], the half-maximal inhibitory concentration (IC50) came out at 1.5 nM on Human mTOR (FLAG-TOR); 2 nM in experiment [1] (MDA-MB-361, 72 h); 19 nM in experiment [2]; 3.2 nM on PI3K-α; 33.5 nM at PI3K-γ.
On the same counts, the results for `CCN1CCN(C(=O)c2ccc(NC(=O)Nc3ccc(-c4nc(N5CCOCC5)nc(N5CC6CCC5CO6)n4)cc3)cc2)CC1` (centres unmarked) [Example 812, 1-{4-[(4-ethylpiperazin-1-yl)carbonyl]phenyl}-3-{4-[4-morpholin-4-yl-6-(2-oxa-5-azabicyclo[2.2.2]oct-5-yl)-1,3,5-triazin-2-yl]phenyl}urea] are 2 nM, 3 nM, 23 nM, 2.8 nM and 30.5 nM.
With `CN1CCN(C(=O)c2ccc(NC(=O)Nc3ccc(-c4nc(N5CCOCC5)nc(N5CC6CCC5CO6)n4)cc3)cc2)CC1` (centres unmarked) [Example 813, 1-{4-[(4-methylpiperazin-1-yl)carbonyl]phenyl}-3-{4-[4-morpholin-4-yl-6-(2-oxa-5-azabicyclo[2.2.2]oct-5-yl)-1,3,5-triazin-2-yl]phenyl}urea], the IC50 at Human mTOR (FLAG-TOR) is 1.9 nM; in experiment [1] (MDA-MB-361, 72 h) it was less than 3.2 nM; in experiment [2], 24 nM; on PI3K-α it was 3.1 nM; at PI3K-γ, 30 nM.
On the same counts, the results for `O=C(Nc1ccc(C(=O)N2CCNCC2)cc1)Nc1ccc(-c2nc(N3CCOCC3)nc(N3CC4CCC3CO4)n2)cc1` (centres unmarked) [Example 814, 1-{4-[4-morpholin-4-yl-6-(2-oxa-5-azabicyclo[2.2.2]oct-5-yl)-1,3,5-triazin-2-yl]phenyl}-3-[4-(piperazin-1-ylcarbonyl)phenyl]urea] are 1.05 nM, 4 nM, 37 nM, 0.8 nM and 10 nM.
In the case of `CN(C)CCNC(=O)c1ccc(NC(=O)Nc2ccc(-c3nc(N4CCOCC4)nc(N4CC5CCC4CO5)n3)cc2)cc1` (centres unmarked) [Example 815, N-[2-(dimethylamino)ethyl]-4-[({4-[4-morpholin-4-yl-6-(2-oxa-5-azabicyclo[2.2.2]oct-5-yl)-1,3,5-triazin-2-yl]phenyl}carbamoyl)amino]benzamide], the IC50 at Human mTOR (FLAG-TOR) was 0.765 nM; in experiment [1] (72 h), 3 nM; in experiment [2], 24 nM; at PI3K-α, 1.9 nM; on PI3K-γ, 24 nM.

(Values after US20090304692A1, “TRIAZINE COMPOUNDS AS PI3 KINASE AND MTOR INHIBITORS” (Wyeth, priority 2008, published 2009).)
